One data set concerns the target recombinant perforin (UniProt P10820). In kind it is cell-based. As to the method:
Inhibition of perforin-mediated lysis of Jurkat cells.
The ability of the compounds to inhibit the lysis of nucleated (Jurkat T lymphoma) cells in the presence of 0.1% BSA, as measured by release of ^51Cr was measured. Jurkat target cells were labelled by incubation in medium with 100 μCi ^51Cr for one hour. The cells were then washed three times to remove unincorporated isotope and re-suspended at 1×10^5 cells per mL in RPMI buffer supplemented with 0.1% BSA. […] Each data point was performed in triplicate and an IC50 was calculated from the range of concentrations described to above.

Data set [1] has as its system KHYG-1 NK cell-mediated lysis of K562 cells. Description: Inhibition of KHYG-1 NK cell-mediated lysis of K562 cells (51Cr release). In kind it is cell-based. Particulars: 4 h, K562 target cells, Effector:Target 2:1, 4 hours at 37° C. Here is the method:
Inhibition of KHYG-1 NK Cell-Mediated Lysis of K562 Cells.
Test compounds were added to KHYG-1 cells at various concentrations up to 20 µM and incubated at RT for 20 minutes. 1×10^6 K562 target cells were labelled with 75 μCi ^51Cr in 200 μl RPMI for 90 mins at 37° C., cells were washed as described above and resuspended in 5 ml RPMI+0.1% BSA. 50 μl of ^51Cr labelled K562 leukemia target cells were added to each well of the KHYG-1 plate (Effector:Target 2:1) and incubated at 37° C. for 4 hours. ^51Cr release was assayed using a Skatron Harvesting Press and radioactivity estimated on a Wallac Wizard 1470 Automatic Gamma counter (Turku, Finland). The percentage of specific cytotoxicity was calculated by the formula: […]

Setting [2] is: lysis of Jurkat T lymphoma cells by recombinant perforin, 0.1% BSA, 30 min pre-incubation, 4 hours at 37° C.; read-out: Jurkat IC50.
[3] abbreviates: read-out: Jurkat IC50; lysis of Jurkat T lymphoma cells by recombinant perforin, 0.1% BSA, 30 min pre-incubation, 4 hours at 37° C.

Where two headings read alike, the source gives them in different places.

recombinant perforin, sequence (P10820 whole entry): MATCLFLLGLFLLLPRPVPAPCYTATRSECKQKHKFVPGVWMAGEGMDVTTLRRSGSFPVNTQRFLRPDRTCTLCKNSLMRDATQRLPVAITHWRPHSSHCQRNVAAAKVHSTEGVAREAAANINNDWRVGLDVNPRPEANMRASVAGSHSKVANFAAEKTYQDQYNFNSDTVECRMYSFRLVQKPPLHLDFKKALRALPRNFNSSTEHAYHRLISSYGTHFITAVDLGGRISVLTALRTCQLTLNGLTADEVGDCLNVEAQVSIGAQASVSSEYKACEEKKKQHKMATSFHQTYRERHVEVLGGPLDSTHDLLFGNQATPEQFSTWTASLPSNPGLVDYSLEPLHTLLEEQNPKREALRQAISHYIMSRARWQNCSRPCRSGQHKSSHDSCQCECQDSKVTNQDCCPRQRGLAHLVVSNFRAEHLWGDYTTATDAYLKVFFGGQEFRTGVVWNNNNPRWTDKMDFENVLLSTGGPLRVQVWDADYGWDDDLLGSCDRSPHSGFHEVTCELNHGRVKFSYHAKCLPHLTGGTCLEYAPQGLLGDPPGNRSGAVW

For orientation: melting point means the temperature of the solid-liquid transition. In the case of `CN1Cc2cc(-c3ccc(-c4cncc(NS(=O)(=O)c5ccc(C(C)(C)C)cc5)c4)s3)ccc2C1=O` [Compound 3, 4-(tert-Butyl)-N-(5-(5-(2-methyl-1-oxoisoindolin-5-yl)thiophen-2-yl)pyridin-3-yl)benzenesulfonamide], the melting point fell in the range of 285 to 288 °C.

Compound `CN1Cc2cc(-c3ccc(-c4cncc(NS(=O)(=O)c5cccc(F)c5)c4)s3)ccc2C1=O` [Compound 5, 3-Fluoro-N-(5-(5-(2-methyl-1-oxoisoindolin-5-yl)thiophen-2-yl)pyridin-3-yl)benzene-sulfonamide] displayed a melting point of 292 to 294 °C.

The compound `CN1Cc2cc(-c3ccc(-c4cncc(NS(=O)(=O)c5ccc(F)c(F)c5)c4)s3)ccc2C1=O` [Compound 7, 3,4-Difluoro-N-(5-(5-(2-methyl-1-oxoisoindolin-5-yl)thiophen-2-yl)pyridin-3-yl)benzene-sulfonamide] came in with a melting point of 282 to 285 °C.

One may read the IC50 as the midpoint of a concentration-inhibition curve. `CN1Cc2cc(-c3ccc(-c4cncc(NS(=O)(=O)c5ccc(Cl)cc5Cl)c4)s3)ccc2C1=O` [Compound 13, 2,4-Dichloro-N-(5-(5-(2-methyl-1-oxoisoindolin-5-yl)thiophen-2-yl)pyridin-3-yl)benzene-sulfonamide]: the melting point is 282 to 285 °C. Moreover, the IC50 on recombinant perforin (setting [2]) was found to be 15 µM.

`COc1ccccc1S(=O)(=O)Nc1cncc(-c2ccc(-c3ccc4c(c3)CN(C)C4=O)s2)c1` [Compound 18, 2-Methoxy-N-(5-(5-(2-methyl-1-oxoisoindolin-5-yl)thiophen-2-yl)pyridin-3-yl)benzenesulfonamide]: the melting point was 273 to 276 °C. For the same compound, on recombinant perforin (setting [2]), the IC50 was found to be 14.8 µM.

On to `CN1Cc2cc(-c3ccc(-c4cncc(NS(=O)(=O)c5ccccc5OC(F)(F)F)c4)s3)ccc2C1=O` [Compound 22, N-(5-(5-(2-Methyl-1-oxoisoindolin-5-yl)thiophen-2-yl)pyridin-3-yl)-2-(trifluoromethoxy)benzenesulfonamide], for which the melting point was in the range of 251 to 254 °C. Besides, the half-maximal inhibitory concentration (IC50) on recombinant perforin (setting [2]) came out at 17.7 µM.

On to `CN1Cc2cc(-c3ccc(-c4cncc(NS(=O)(=O)c5ccc(OC(F)(F)F)cc5)c4)s3)ccc2C1=O` [Compound 24, N-(5-(5-(2-Methyl-1-oxoisoindolin-5-yl)thiophen-2-yl)pyridin-3-yl)-4-(trifluoromethoxy)benzenesulfonamide], for which the melting point fell in the range of 293 to 296 °C.

In turn, `CN1Cc2cc(-c3ccc(-c4cncc(NS(=O)(=O)c5ccc(C(F)(F)F)cc5Cl)c4)s3)ccc2C1=O` [Compound 26, 2-Chloro-N-(5-(5-(2-methyl-1-oxoisoindolin-5-yl)thiophen-2-yl)pyridin-3-yl)-4-(trifluoromethyl)benzenesulfonamide] returned a melting point of 292 to 295 °C.

Compound `CN1Cc2cc(-c3ccc(-c4cncc(NS(=O)(=O)c5cccnc5)c4)s3)ccc2C1=O` [Compound 32, N-(5-(5-(2-Methyl-1-oxoisoindolin-5-yl)thiophen-2-yl)pyridin-3-yl)pyridine-3-sulfonamide] registered a melting point of 283 to 286 °C. Also, the IC50 at recombinant perforin (setting [2]) stood at 15.1 µM.

Compound `CN1Cc2cc(-c3ccc(-c4cncc(NS(=O)(=O)c5ccc(Cl)nc5)c4)s3)ccc2C1=O` [Compound 33, 6-Chloro-N-(5-(5-(2-methyl-1-oxoisoindolin-5-yl)thiophen-2-yl)pyridin-3-yl)pyridine-3-sulfonamide] showed a melting point of 260 to 265 °C.

In turn, `COc1ncc(-c2ccc(-c3ccc4c(c3)CN(C)C4=O)s2)cc1NS(=O)(=O)c1ccccc1` [Compound 36, N-(2-Methoxy-5-(5-(2-methyl-1-oxoisoindolin-5-yl)thiophen-2-yl)pyridin-3-yl)benzenesulphonamide] gave a melting point of 280 to 283 °C.

In turn, `COc1ncc(-c2ccc(-c3ccc4c(c3)CNC4=O)s2)cc1NS(=O)(=O)c1ccc(F)cc1F` [Compound 38, 2,4-Difluoro-N-(2-methoxy-5-(5-(1-oxoisoindolin-5-yl)thiophen-2-yl)pyridin-3-yl)benzene sulphonamide] displayed a melting point of 266 to 270 °C. The IC50 on recombinant perforin (setting [2]) was determined as 5.41 µM.

`CN1Cc2cc(-c3ccc(-c4ccc(NS(=O)(=O)c5ccc(F)cc5F)nc4)s3)ccc2C1=O` [Compound 42, 2,4-Difluoro-N-(5-(5-(2-methyl-1-oxoisoindolin-5-yl)thiophen-2-yl)pyridin-2-yl)benzenesulfonamide]: the melting point was 269 to 272 °C.

Consider `CN1Cc2cc(-c3ccc(-c4cncc(NC(=O)c5ccc(F)cc5F)c4)s3)ccc2C1=O` [Compound 47, 2,4-Difluoro-N-(5-(5-(2-methyl-1-oxoisoindolin-5-yl)thiophen-2-yl)pyridin-3-yl)benzamide], for which the melting point fell in the range of 267 to 269 °C.

Compound `CC1c2cc(-c3ccc(-c4cncc(NS(=O)(=O)c5ccc(F)cc5F)c4)s3)ccc2C(=O)N1C` (stereo not shown) [Compound 51, N-(5-(5-(2,3-Dimethyl-1-oxoisoindolin-5-yl)thiophen-2-yl)pyridin-3-yl)-2,4-difluorobenzenesulfonamide] registered a melting point of 229 to 230 °C.

The compound `O=C1NCCc2cc(-c3ccc(-c4cncc(NS(=O)(=O)c5ccc(F)cc5F)c4)s3)ccc21` [Compound 52, 2,4-Difluoro-N-(5-(5-(1-oxo-1,2,3,4-tetrahydroisoquinolin-6-yl)thiophen-2-yl)pyridin-3-yl)benzensulphonamide] displayed a melting point of 267 to 270 °C.

In the case of `CN1CCc2cc(-c3ccc(-c4cncc(NS(=O)(=O)c5ccc(F)cc5F)c4)s3)ccc2C1=O` [Compound 53, 2,4-Difluoro-N-(5-(5-(2-methyl-1-oxo-1,2,3,4-tetrahydroisoquinolin-6-yl)thiophen-2-yl)pyridin-3-yl)benzenesulfonamide], the melting point lay within 262 to 265 °C.

As for `O=C1NCCc2ccc(-c3ccc(-c4cncc(NS(=O)(=O)c5ccc(F)cc5F)c4)s3)cc21` [Compound 54, 2,4-Difluoro-N-(5-(5-(1-oxo-1,2,3,4-tetrahydroisoquinolin-7-yl)thiophen-2-yl)pyridin-3-yl)benzenesulfonamide], the melting point is 252 °C (dec.).

Regarding `O=C1c2ccc(-c3ccc(-c4cncc(NS(=O)(=O)c5ccc(F)cc5F)c4)s3)cc2CN1CCCO` [Compound 57, 2,4-Difluoro-N-(5-(5-(2-(3-hydroxypropyl)-1-oxoisoindolin-5-yl)thiophen-2-yl)pyridin-3-yl)benzenesulfonamide], the melting point was in the range of 239 to 241 °C.

`Cc1ccc(NS(=O)(=O)c2ccc(F)cc2F)cc1-c1ccc(-c2ccc3c(c2)CN(C)C3=O)s1` [Compound 61, 2,4-Difluoro-N-(4-methyl-3-(5-(2-methyl-1-oxoisoindolin-5-yl)thiophen-2-yl)phenyl)benzenesulfonamide]: the melting point fell in the range of 268 to 271 °C.

The inhibition is the share of the control response that was lost under treatment. Read a low inhibition as a response near the control. In the case of `CN1Cc2cc(-c3ccc(-c4cncc(NS(=O)(=O)c5ccccc5S(C)(=O)=O)c4)s3)ccc2C1=O` [Compound 82, N-(5-(5-(2-Methyl-1-oxoisoindolin-5-yl)thiophen-2-yl)pyridin-3-yl)-2-(methylsulfonyl)benzenesulfonamides], the IC50 at recombinant perforin (setting [2]) was 6.8 µM. The compound further yielded an inhibition at 20 µM in data set [1] of 30.5 ± 11%.

As for `COC(=O)c1ccc(S(=O)(=O)Nc2cncc(-c3ccc(-c4ccc5c(c4)CN(C)C5=O)s3)c2)cc1` [Compound 84, Methyl 4-(N-(5-(5-(2-methyl-1-oxoisoindolin-5-yl)thiophen-2-yl)pyridin-3-yl)sulfamoyl)benzoate], at recombinant perforin (setting [2]), the IC50 was determined as 8.16 µM. Further, 20 µM produced 8.84% inhibition in data set [1].

For the compound `COC(=O)c1ccccc1S(=O)(=O)Nc1cncc(-c2ccc(-c3ccc4c(c3)CN(C)C4=O)s2)c1` [Compound 86, Methyl 2-(N-(5-(5-(2-methyl-1-oxoisoindolin-5-yl)thiophen-2-yl)pyridin-3-yl)sulfamoyl)benzoate], the IC50 at recombinant perforin (setting [2]) turned out to be 2.9 µM. This compound also gave an inhibition at 20 µM in data set [1] of 2.3 ± 3%.

Turning to `CN1Cc2cc(-c3ccc(-c4cncc(NS(=O)(=O)c5ccc(Br)s5)c4)s3)ccc2C1=O` [Compound 87, 5-Bromo-N-(5-(5-(2-methyl-1-oxoisoindolin-5-yl)thiophen-2-yl)pyridin-3-yl)thiophene-2-sulphonamide], on recombinant perforin (setting [3]), the IC50 is 1.8 µM. The compound further came in with an inhibition at 20 µM in data set [1] of 31.6 ± 6%.

`CN1Cc2cc(-c3ncc(-c4cncc(NS(=O)(=O)c5ccc(F)cc5F)c4)s3)ccc2C1=O` [Compound 88, 2,4-Difluoro-N-(5-(2-(2-methyl-1-oxoisoindolin-5-yl)thiazol-5-yl)pyridin-3-yl)benzenesulphonamide]: on recombinant perforin (setting [3]), the IC50 turned out to be 18.8 µM. Besides, in data set [1], at 20 µM the inhibition was 40.5 ± 23%.

Take `CN1Cc2cc(-c3ccc(-c4cncc(NS(=O)(=O)c5ccc(F)c(C(F)(F)F)c5)c4)s3)ccc2C1=O` [Compound 89, 4-Fluoro-N-(5-(5-(2-methyl-1-oxoisoindolin-5-yl)thiophen-2-yl)pyridin-3-yl)-3-(trifluoromethyl)benzenesulphonamide]: the IC50 at recombinant perforin (setting [2]) came to 3.75 µM. The compound further came in with an inhibition at 20 µM in data set [1] of 59.9 ± 13%.

Values taken from patent US9896443B2, “Perforin inhibiting benzenesulfonamide compounds, preparation and uses thereof” (Peter MacCallum Cancer Institute, priority 2012, dated 2018).
